Like-named read-outs stand apart in the source and are kept apart here.
Columns and labels:
[1] = Measurement of fluorescent property of compound (spectrofluorometer); type: physicochemical; settings: 5 μM DMSO solution
Method: The excitation wavelength and fluorescence wavelength of the compound were measured by a FL4500 spectrofluorometric measuring machine manufactured by Hitachi High-Technologies Corporation.

[2] = test system: Human pancreas cancer cells, KLM-1; experiment: Cancer cell inhibitory (growth suppressive) action against pancreatic cancer cells, CellTiter-Glo viable cell count; type: cell-based; settings: KLM1, KLM-1, 10 μg/mL, 24 hours
Method: Observation on cancer cell inhibitory (growth suppressive) action against pancreatic cancer cells Human pancreas cancer cells, KLM-1, were pre-cultured in RPMI1640 medium containing 10% FBS at 37° C. in a 5% CO2 ambient. Thereafter, 4,000 cells were seeded per well of a 96-well plate and further cultured for 24 hours. Subsequently, Compound (1) was added to the medium so as to obtain a final concentration of 10 μg/mL and cultured at 37° C. for 24 hours in a 5% CO2 ambient. The cultured cells were analyzed for viable cell count according to CellTiter-Glo Luminescent Cell Viability Assay (manufactured by Promega KK.). As a reference, the number of cells cultured in a medium containing a 0.1% dimethylsulfoxide solution (hereinafter, simply referred to as DMSO) in place of a medium containing Compound (1), in the aforementioned operation, was regarded (100%).
Viable cell count was analyzed in the same manner as in Experimental Example 1 except that Compound (1) of Experimental Example 1 was changed to compounds shown in Table 2.
Viable cell count was analyzed in the same manner as in Experimental Example 1 except that Compound (1) was changed to comparative compounds 1 to 4.
Viable cell counts of Experimental Examples 1 to 7 and Comparative Examples 1 to 4 were analyzed to obtain growth rates.
Evaluation of cancer cell inhibition against the pancreatic cancer cells (KLM-1) (growth suppression) was made based on the following criteria. Note that the growth rate in Examples herein is a numerical value of the number of cells obtained after culture relative to the number of cells (regarded as 100) grown in a medium containing 0.1% DMSO. Evaluation of cancer cell inhibition against the pancreatic cancer cells (KLM-1) was made as follows. • A: Cancer cell growth rate is less than 20% (cancer cell inhibitory (growth suppressive) effect is extremely high) • B: Cancer cell growth rate is 20% or more and less than 50% (cancer cell inhibitory (growth suppressive) effect is high) • C: Cancer cell growth rate is 50% or more (cancer cell inhibitory (growth suppressive) effect is low)

[3] = test system: K562 ALDH (+) fraction (cancer stem cells); experiment: Cancer stem-cell selective inhibitory action against chronic myelocytic leukemia cells, ALDH (+) fraction, CellTiter-Glo; type: cell-based; settings: Homo sapiens, 24 hours; for activity at 0.05 µg/mL: 0.05 μg/mL; for activity at 0.5 µg/mL: 0.5 μg/mL; for activity at 1 µg/mL: 1 μg/mL
Method: (§1) Human chronic myelocytic leukemia cells, K562, were pre-cultured in RPMI1640 medium containing 10% FBS at 37° C. in a 5% CO2 ambient. Then, a fraction containing 80% or more of cancer stem cells was extracted by use of ALDEFLUOR reagent (manufactured by VERITAS Corporation) and FACSAria flow cytometry (manufactured by Nippon Becton, Dickinson and Company). Subsequently, Compound (5) was added to the medium so as to obtain a final concentration of 10 μg/mL and cultured at 37° C. for 24 hours in a 5% CO2 ambient. The cultured cells were analyzed for viable cell count according to CellTiter-Glo Luminescent Cell Viability Assay (manufactured by Promega KK.). As a reference, the number of cells cultured in a medium containing a 0.1% dimethylsulfoxide solution (hereinafter, simply referred to as DMSO) in place of a medium containing Compound (1), in the aforementioned operation, was used as 0.1. Note that hereinafter, an ALDEFLUOR reagent positive fraction (deemed as cancer stem cells) is represented by ALDH (+), whereas an ALDEFLUOR reagent negative fraction (not deemed as cancer stem cells) is represented by ALDH (−), in some cases.
(§2) The same operation as in Experimental Example 12 was repeated except that Compound (5) in Experimental Example 12 was changed to the compounds shown in Table 4 and final concentrations shown in Table 4 were used and viable cell counts were separately analyzed. Note that the growth rate in Examples herein is a numerical value of the number of cells obtained after culture relative to the number of cells (regarded as 0.1) grown in a medium containing 0.1% DMSO.
(§3) The same operation as in Experimental Example 12 was repeated except that Compound (5) in Experimental Example 12 was changed to Imatinib (manufactured by NOVARTIS), which is a general anticancer drug, and comparative compounds shown in Table 4 and final concentrations shown in Table 4 were used and viable cell counts were separately analyzed.
(§4) The growth suppressive effect of cancer stem cells was evaluated based on the following criteria. Note that the growth rate in Examples herein is a numerical value relative to the number of cells (regarded as 0.1) grown in a medium containing 0.1% DMSO. • A: The value of ALDH (+) is less than 0.5 (growth suppressive effect against cancer stem cells is extremely high) • B: The value of ALDH (+) is 0.5 or more and less than 0.95 (growth suppressive effect against cancer stem cells is high) • C: The value of ALDH (+) is 0.95 or more (no growth suppressive effect against cancer stem cells)
(§5) Furthermore, superiority of cancer stem cells was evaluated by comparing cancer stem cells to cancer cells based on the following criteria. ALDH (+) represents cancer stem cells; whereas ALDH (−) represents general cancer cells. • A: The value of ALDH (+)/ALDH (−) is less than 0.8 (selective inhibitory effect against cancer stem cells is extremely high) • B: The value of ALDH (+)/ALDH (−) is 0.8 or more and less than 0.95 (selective inhibitory effect against cancer stem cells is high) • C: The value of ALDH (+)/ALDH (−) is 0.95 or more (no selective inhibitory effect against cancer stem cells)

[4] = test system: K562 ALDH (−) fraction (general cancer cells); experiment: Cancer stem-cell selective inhibitory action against chronic myelocytic leukemia cells, ALDH (−) fraction, CellTiter-Glo; type: cell-based, Human; settings: Homo sapiens, 24 hours, relative to 0.1% DMSO, read-out: ALDH(−) (growth rate)
Method: as §1, §2, §3, §4, §5

K562 ALDH (+) cells = experiment: Cancer stem-cell selective staining, fluorescent microscopy, ALDH (+) cells; type: cell-based, Human
Method: (§6) The cells cultured for 24 hours in Experimental Example 16 were subjected to nuclear staining with Hoechest33342 (manufactured by Dojindo Laboratories) and a fluorescent image observed under AXIOVERT200M inverted fluorescent microscope (manufactured by Carl Zeiss) was photographed.

K562 ALDH (−) cells = experiment: Cancer stem-cell selective staining, fluorescent microscopy, ALDH (−) cells; type: cell-based, Human; settings: cells cultured for 24 hours in Experimental Example 16 (1 μg/mL)
Method: as §6

[5] = read-out: Growth suppression evaluated
[6] = relative to 0.1% DMSO, read-out: ALDH(+) (growth rate)

SMILES: COc1ccc(N2c3ccc(/C=C/C4=[N+](C)c5ccccc5C4(C)C)cc3C3CCCC32)cc1 (stereo not shown) [Compound 11]
- Excitation wavelength λex [1]: 614 nm
- Fluorescence wavelength λem [1]: 669 nm
- activity at 10 µg/mL ([2]; read-out: Evaluation (cancer cell growth rate)): < 20%
- activity at 10 µg/mL ([2]; relative to 0.1% DMSO (100), read-out: Cancer cell growth rate (%)): 2.6%
- activity at 0.05 µg/mL [3, 5]: 50 to 95%
- activity at 0.05 µg/mL [3, 6]: 65%
- activity at 0.5 µg/mL [3, 5]: < 50%
- activity at 0.5 µg/mL [3, 6]: 32%
- activity at 1 µg/mL [3, 5]: < 50%
- activity at 1 µg/mL [3, 6]: 12%
- activity at 0.05 µg/mL ([4]; 0.05 μg/mL): 77%
- activity at 0.5 µg/mL ([4]; 0.5 μg/mL): 49%
- activity at 1 µg/mL ([4]; 1 μg/mL): 22%
- Selective staining of cancer stem cells (K562 ALDH (+) cells; ALDH (+) versus ALDH (−) K562 cells): selectively stained
- ALDH(+) (ratio of ALDH (+) cells stained) (K562 ALDH (+) cells; cells cultured for 24 hours in Experimental Example 16 (1 μg/mL)): 76.7%
- ALDH(−) (ratio of ALDH (−) cells stained) (K562 ALDH (−) cells): 48.5%

From patent US10220024B2, “Method of inhibiting cancer cell, method for detecting cancer cell, and system for detecting cancer cell” (CANON KABUSHIKI KAISHA, priority 2012, dated 2019)
